Consider 51 compounds from patent US9181236B2, “2-spiro-substituted iminothiazines and their mono-and dioxides as bace inhibitors, compositions and their use” (Merck Sharp & Dohme Corp., priority 2011, dated 2015).

For experiment [1], the target named is purified human autoBACE-2 (Homo sapiens (Human), UniProt Q9Y5Z0). The experiment in a line: BACE-2 Assay (BACE-HTRF assay). Format: biochemical. To be noted: Ki calculated from IC50 using the Cheng-Prusoff equation; read-out: BACE2 Ki. As for the experimental part: Inhibitor IC50s at purified human autoBACE-2 are determined in a time-resolved endpoint proteolysis assay that measures hydrolysis of the QSY7-[…]-Eu-amide FRET peptide substrate (BACE-HTRF assay). […] DMSO is present at 5% final concentration in the assay. Following laser excitation of sample wells at 320 nm, the fluorescence signal at 620 nm is collected for 400 ms following a 50 μs delay on a RUBYstar HTRF plate reader (BMG Labtechnologies). Raw RFU data is normalized to maximum (1.0 nM BACE/DMSO) and minimum (no enzyme/DMSO) RFU values. […] The Ki values are calculated from the IC50 using the Cheng-Prusoff equation.

Experiment [2] has as its target soluble human BACE1 catalytic domain (Homo sapiens (Human), UniProt P56817). As to the kind of experiment: BACE1 HTRF FRET Assay. Format: biochemical. To be noted: for Ki: Ki calculated from IC50 using the Cheng-Prusoff equation; for inhibition at 10 µM: read-out: BACE1 % Inh. at 10 μM.

SMILES strings stand for the structures. A value given as a limit tells only on which side of the number the result lay.

Sequence of soluble human BACE1 catalytic domain (P56817 75-416): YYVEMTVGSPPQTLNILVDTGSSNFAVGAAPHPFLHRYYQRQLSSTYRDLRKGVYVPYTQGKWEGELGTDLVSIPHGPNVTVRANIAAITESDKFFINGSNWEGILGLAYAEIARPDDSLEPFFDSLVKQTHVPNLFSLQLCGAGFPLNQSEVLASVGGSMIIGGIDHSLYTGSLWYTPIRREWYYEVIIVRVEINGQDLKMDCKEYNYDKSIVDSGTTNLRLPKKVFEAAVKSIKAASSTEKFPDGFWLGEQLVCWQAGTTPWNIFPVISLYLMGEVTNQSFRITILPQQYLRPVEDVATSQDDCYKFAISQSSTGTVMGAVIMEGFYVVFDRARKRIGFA
Sequence of purified human autoBACE-2 (Q9Y5Z0 63-473 limits assumed): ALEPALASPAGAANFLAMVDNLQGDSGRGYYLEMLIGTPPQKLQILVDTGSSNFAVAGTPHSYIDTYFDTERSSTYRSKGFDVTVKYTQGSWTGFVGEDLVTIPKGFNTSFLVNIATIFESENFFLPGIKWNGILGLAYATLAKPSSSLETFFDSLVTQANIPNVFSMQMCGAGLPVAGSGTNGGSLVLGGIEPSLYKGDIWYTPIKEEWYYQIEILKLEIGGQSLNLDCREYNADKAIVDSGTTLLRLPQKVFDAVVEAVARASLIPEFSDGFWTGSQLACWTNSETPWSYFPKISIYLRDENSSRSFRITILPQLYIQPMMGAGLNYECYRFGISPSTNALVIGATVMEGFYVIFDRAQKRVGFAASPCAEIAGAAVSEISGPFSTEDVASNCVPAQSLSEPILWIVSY

With `COc1cnc(C(=O)Nc2ccc(F)c([C@]3(C)CS(=O)(=O)[C@]4(CCOC4)C(=N)N3)c2)cn1` [Example 62], the inhibition constant Ki in experiment [1] is < 20 nM; in experiment [2] it was 25.4 nM.
`C[C@@]1(c2sc(-c3cncc(C(F)(F)F)c3)cc2Cl)CS(=O)(=O)C2(CCOCC2)C(=N)N1` [Example 54]: the Ki in experiment [1] was < 50 nM; in experiment [2] it was 157 nM.
In the case of `C[C@@]1(c2cc(NC(=O)c3ccc(F)cn3)ccc2F)CS(=O)(=O)C2(CCC2)C(=N)N1` [Example 8], the inhibition constant Ki in experiment [1] is 4.2 nM; in experiment [2] it was 17.1 nM.
For the compound `C[C@@]1(c2sc(Br)cc2Cl)CS(=O)(=O)C2(CCCC2)C(=N)N1`, the inhibition constant (Ki) is 134 nM in experiment [1] and 447 nM in experiment [2].
As to `C[C@@]1(c2cc(NC(=O)c3cn4ncsc4n3)ccc2F)CS(=O)(=O)C2(CCCC2)C(=N)N1` [Example 19], the Ki in experiment [1] was < 20 nM; in experiment [2], 18.4 nM.
Take `C[C@@]1(c2cc(NC(=O)c3ccc(F)cn3)ccc2F)CS(=O)(=O)[C@]2(CCOC2)C(=N)N1` [Example 62b]: the results for the Ki in experiment [1] and in experiment [2] were 4.3 nM and 24 nM, respectively.
For the compound `C[C@@]1(c2cc(NC(=O)c3ccc(F)cn3)ccc2F)CS(=O)(=O)C2(CCC(O)C2)C(=N)N1` (single isomer, unassigned) [Example 76b], the inhibition constant Ki in experiment [1] is < 50 nM; in experiment [2], 104 nM.
Regarding `COc1cnc(C(=O)Nc2ccc(F)c([C@]3(C)CS(=O)(=O)C4(CCCC4)C(=N)N3)c2)cn1` [Example 17], the inhibition constant Ki in experiment [1] was 1.5 nM; in experiment [2], 3.6 nM.
Take `C[C@@]1(c2cc(NC(=O)c3cnsn3)ccc2F)CS(=O)(=O)C2(CCCC2)C(=N)N1` [Example 23]: the inhibition constant (Ki) in experiment [1] is 3.1 nM; in experiment [2], 108 nM.
Turning to `C[C@@]1(c2sc(-c3ccnc(-c4ccco4)c3)cc2Cl)CS(=O)(=O)[C@]2(CCOC2)C(=N)N1` [Example 62l], the Ki was 2.2 nM in experiment [1] and 45.3 nM in experiment [2].
In the same order, the values of `C[C@@]1(c2cc(N)ccc2F)CS(=O)(=O)C2(CCCC2)C(=N)N1` are 1420 nM and 4130 nM.
Take `C[C@@]1(c2cc(NC(=O)c3ccc(F)cn3)ccc2F)CS(=O)(=O)C2(CCC(O)C2)C(=N)N1` (single isomer, unassigned) [Example 76a]: the Ki was 2.4 nM in experiment [1] and 9.3 nM in experiment [2].
In the same order, the values of `C[C@@]1(c2cc(NC(=O)c3ccc(Cl)cn3)ccc2F)CS(=O)(=O)C2(CCOCC2)C(=N)N1` [Example 33] are 1.6 nM and 6.1 nM.
For `C[C@@]1(c2cc(N)ccc2F)CS(=O)(=O)C2(CC2)C(=N)N1`, the Ki in experiment [1] is 1860 nM; in experiment [2] it was 4900 nM.
On to `COc1cnc(C(=O)Nc2ccc(F)c([C@]3(C)CS(=O)(=O)C4(CCOCC4)C(=N)N3)c2)cn1` [Example 32], for which the figures for the Ki in experiment [1] and in experiment [2] were < 50 nM and 16.3 nM, respectively.
Turning to `COc1ccc(C(=O)Nc2ccc(F)c([C@]3(C)CS(=O)(=O)C4(CCC4)C(=N)N3)c2)nc1` [Example 10], the inhibition constant (Ki) in experiment [1] is < 20 nM; in experiment [2], 10.7 nM.
As for `C[C@@]1(c2sc(Br)cc2Cl)CS(=O)(=O)C2(CCOCC2)C(=N)N1`, the inhibition constant (Ki) is 1090 nM in experiment [1] and 2370 nM in experiment [2].
Consider `C[C@@]1(c2cc(NC(=O)c3ccc(F)cn3)ccc2F)CS(=O)(=O)C2(CCOCC2)C(=N)N1` [Example 30], for which the Ki in experiment [1] was 2.1 nM; in experiment [2], 10.9 nM.
Consider `C[C@@]1(c2sc(-c3cncc(C#N)c3)cc2Cl)CS(=O)(=O)[C@]2(CCOC2)C(=N)N1` [Example 62f], for which the Ki is < 20 nM in experiment [1] and 67.1 nM in experiment [2].
`C[C@@]1(c2cc(NC(=O)c3ccc(C#N)cn3)ccc2F)CS(=O)(=O)[C@@]2(CCOC2)C(=N)N1` [Example 63d]: the Ki in experiment [1] is < 20 nM; in experiment [2] it was 5.2 nM.
`C[C@@]1(c2cc(NC(=O)c3ccc(F)cn3)ccc2F)CS(=O)(=O)C2(CCCCC2)C(=N)N1` [Example 25]: the Ki in experiment [1] was 4.4 nM; in experiment [2], 32 nM.
With `C[C@@]1(c2sc(C#CCc3cc(F)c(F)c(F)c3)cc2Cl)CS(=O)(=O)C2(CCC2)C(=N)N1` [Example 78], the inhibitory constant (Ki) in experiment [1] was < 20 nM. Further, in experiment [2], the inhibition at 10 µM worked out at 17%.
Turning to `C[C@@]1(c2sc(-c3cncc(C#N)c3)cc2Cl)CS(=O)(=O)C2(CCOCC2)C(=N)N1` [Example 50], the Ki in experiment [1] was < 50 nM; in experiment [2] it was 130 nM.
For `C[C@@]1(c2sc(-c3ccnc(-c4cccs4)c3)cc2Cl)CS(=O)(=O)[C@]2(CCOC2)C(=N)N1` [Example 62k], the inhibition constant Ki is < 20 nM in experiment [1] and 305 nM in experiment [2].
As for `C[C@@]1(c2cc(NC(=O)c3ccc(C(F)(F)F)cn3)ccc2F)CS(=O)(=O)C2(CCOCC2)C(=N)N1` [Example 34], the results for the inhibitory constant (Ki) in experiment [1] and in experiment [2] were < 50 nM and 19.8 nM, respectively.
For `COc1cccc2cc(-c3cc(Cl)c([C@]4(C)CS(=O)(=O)C5(CCOCC5)C(=N)N4)s3)[nH]c12` [Example 48], the Ki in experiment [1] was 2 nM; in experiment [2], 19.8 nM.
For the compound `C[C@@]1(c2sc(-c3cncc(-c4ncco4)c3)cc2Cl)CS(=O)(=O)[C@@]2(CCOC2)C(=N)N1` [Example 63h], the inhibition constant (Ki) in experiment [1] is < 20 nM; in experiment [2], 107 nM.
As for `COc1ccc(C(=O)Nc2ccc(F)c([C@]3(C)CS(=O)(=O)[C@]4(CCOC4)C(=N)N3)c2)nc1` [Example 62a], the Ki in experiment [1] was < 20 nM; in experiment [2] it was 30.3 nM.
Turning to `C[C@@]1(c2cc([N+](=O)[O-])ccc2F)CS(=O)(=O)[C@]2(CCOC2)C(=N)N1`, the Ki in experiment [1] was 2080 nM; in experiment [2], 6690 nM.
For `COc1cnc(C(=O)Nc2ccc(F)c([C@]3(C)CS(=O)(=O)[C@@]4(CCOC4)C(=N)N3)c2)cn1` [Example 63], the inhibition constant (Ki) in experiment [1] was < 50 nM; in experiment [2], 41 nM.
As to `C[C@@]1(c2sc(-c3cccc(C(F)(F)F)c3)cc2Cl)CS(=O)(=O)C2(CCOCC2)C(=N)N1` [Example 52], the Ki is < 50 nM in experiment [1] and 147 nM in experiment [2].
In the case of `COc1cccc2cc(-c3cc(Cl)c([C@]4(C)CS(=O)(=O)C5(CCC5)C(=N)N4)s3)[nH]c12` [Example 58], the Ki is 1 nM in experiment [1] and 7.7 nM in experiment [2].
Taken in the same sequence, the figures for `C[C@@]1(c2sc(C#CC3(c4ccccc4)CCCC3)cc2Cl)CS(=O)(=O)C2(CCC2)C(=N)N1` [Example 77] were < 50 nM and 2550 nM.
For the compound `C[C@@]1(c2cc(N)ccc2F)CS(=O)(=O)[C@@]2(CCOC2)C(=N)N1`, in experiment [1], the Ki is 3820 nM. Also, in experiment [2], the inhibition at 10 µM is 38%.
With `COc1cccc2cc(-c3cc(Cl)c([C@]4(C)CS(=O)(=O)[C@@]5(CCOC5)C(=N)N4)s3)[nH]c12` [Example 63f], the results for the Ki in experiment [1] and in experiment [2] were 1.5 nM and 14.2 nM, respectively.
With `C[C@@]1(c2cc(N)ccc2F)CS(=O)(=O)[C@]2(CCOC2)C(=N)N1`, the Ki in experiment [1] was 5110 nM. Further, the inhibition at 10 µM in experiment [2] turned out to be 45%.
For `COc1ccc(C(=O)Nc2ccc(F)c([C@]3(C)CS(=O)(=O)C4(CCCC4)C(=N)N3)c2)nc1` [Example 15], the Ki in experiment [1] was 0.6 nM; in experiment [2], 5.2 nM.
With `C[C@@]1(c2sc(-c3cccc(C#N)c3)cc2Cl)CS(=O)(=O)C2(CCOCC2)C(=N)N1` [Example 49], the inhibition constant Ki in experiment [1] was < 50 nM; in experiment [2] it was 113 nM.
Take `C[C@@]1(c2cc(NC(=O)c3ncc(F)cc3F)ccc2F)CS(=O)(=O)C2(CCC2)C(=N)N1` [Example 9]: the Ki is 2.5 nM in experiment [1] and 12.6 nM in experiment [2].
Take `C[C@@]1(c2cc(NC(=O)c3ccc(C#N)cn3)ccc2F)CS(=O)(=O)C2(CCC2)C(N)=N1` [Example 11]: the inhibitory constant (Ki) in experiment [1] was < 20 nM; in experiment [2], 5.4 nM.
`C[C@@]1(c2cc(NC(=O)c3cn4ccsc4n3)ccc2F)CS(=O)(=O)C2(CCCC2)C(=N)N1` [Example 20]: the figures for the inhibition constant (Ki) in experiment [1] and in experiment [2] were < 20 nM and 82 nM, respectively.
`COc1cccc2cc(-c3cc(Cl)c([C@]4(C)CS(=O)(=O)[C@]5(CCOC5)C(=N)N4)s3)[nH]c12` [Example 62g]: the results for the Ki in experiment [1] and in experiment [2] were 0.9 nM and 6.3 nM, respectively.
Take `COc1cnc(C(=O)Nc2ccc(F)c([C@]3(C)CS(=O)(=O)C4(CC4)C(=N)N3)c2)cn1` [Example 2]: the inhibition constant Ki is < 20 nM in experiment [1] and 4.2 nM in experiment [2].
For `C[C@@]1(c2sc(Br)cc2Cl)CS(=O)(=O)C2(CCC2)C(=N)N1`, the Ki in experiment [1] is 531 nM; in experiment [2], 1570 nM.
For the compound `CCc1cccc(NC(=O)c2cc(Cl)c([C@]3(C)CS(=O)(=O)C4(CC4)C(=N)N3)s2)n1` [Example 79], the Ki in experiment [1] is < 20 nM; in experiment [2], 88 nM.
In the same order, the values of `C[C@@]1(c2sc(-c3cncc(C#N)c3)cc2Cl)CS(=O)(=O)[C@@]2(CCOC2)C(=N)N1` [Example 63e] are < 50 nM and 192 nM.
With `C[C@@]1(c2sc(C(=O)Nc3cccc(F)n3)cc2Cl)CS(=O)(=O)C2(CC2)C(=N)N1` [Example 79c], the values for the Ki in experiment [1] and in experiment [2] were < 50 nM and 227 nM, respectively.
With `C[C@@]1(c2sc(-c3cccc(C#N)c3)cc2Cl)CS(=O)(=O)C2(CCCCC2)C(=N)N1` [Example 45], the Ki in experiment [1] is < 20 nM; in experiment [2], 48 nM.
Consider `C[C@@]1(c2cc(NC(=O)c3ccc(C(F)(F)F)cn3)ccc2F)CS(=O)(=O)C2(CCCCC2)C(=N)N1` [Example 29], for which the inhibition constant (Ki) in experiment [1] is < 50 nM; in experiment [2] it was 23.3 nM.
In the same order, the values of `C[C@@]1(c2cc(NC(=O)c3ccc(C#N)cn3)ccc2F)CS(=O)(=O)C2(CCCCC2)C(=N)N1` [Example 28] are < 20 nM and 10.6 nM.
Take `C[C@@]1(c2cc([N+](=O)[O-])ccc2F)CS(=O)(=O)[C@@]2(CCOC2)C(=N)N1`: the values for the Ki in experiment [1] and in experiment [2] were 2670 nM and 6120 nM, respectively.
